# Results from ChEMBL document CHEMBL2029212, “Discovery of 1,4-disubstituted 3-cyano-2-pyridones: a new class of positive allosteric modulators of the metabotropic glutamate 2 receptor” (J Med Chem, 2012).
# Tests used:
# [1] = molecular target: T1, Metabotropic glutamate receptor 2 (Homo sapiens, UniProt Q14416); assay: Positive allosteric modulation of human mGlu2 receptor expressed in CHO cells assessed as glutamate-induced [35S]GTPgammaS binding after 30 mins by liquid scintillation counting; assay type: functional, cell-based
# Target sequence in this assay (Q14416 whole entry): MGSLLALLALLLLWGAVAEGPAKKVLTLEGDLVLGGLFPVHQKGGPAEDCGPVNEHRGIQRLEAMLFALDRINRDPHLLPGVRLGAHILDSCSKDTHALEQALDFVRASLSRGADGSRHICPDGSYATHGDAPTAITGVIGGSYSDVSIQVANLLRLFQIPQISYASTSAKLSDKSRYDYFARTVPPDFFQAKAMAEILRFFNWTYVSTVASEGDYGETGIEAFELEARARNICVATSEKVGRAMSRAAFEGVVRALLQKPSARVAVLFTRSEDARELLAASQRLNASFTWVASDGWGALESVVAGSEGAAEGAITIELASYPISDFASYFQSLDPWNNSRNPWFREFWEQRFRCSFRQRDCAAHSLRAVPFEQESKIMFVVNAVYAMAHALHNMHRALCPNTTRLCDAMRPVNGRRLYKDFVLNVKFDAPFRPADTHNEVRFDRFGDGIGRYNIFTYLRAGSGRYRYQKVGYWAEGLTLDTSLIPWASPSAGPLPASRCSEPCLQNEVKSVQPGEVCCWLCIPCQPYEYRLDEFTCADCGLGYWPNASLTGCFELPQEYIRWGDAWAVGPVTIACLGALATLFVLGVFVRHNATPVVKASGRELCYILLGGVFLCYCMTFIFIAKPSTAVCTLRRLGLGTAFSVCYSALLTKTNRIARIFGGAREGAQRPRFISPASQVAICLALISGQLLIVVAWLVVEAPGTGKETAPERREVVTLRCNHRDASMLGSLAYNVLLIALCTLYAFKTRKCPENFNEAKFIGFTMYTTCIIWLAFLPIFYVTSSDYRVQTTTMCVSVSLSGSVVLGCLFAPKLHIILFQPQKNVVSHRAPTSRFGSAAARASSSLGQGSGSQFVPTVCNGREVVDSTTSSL
# [2] = molecular target: T1, Metabotropic glutamate receptor 2; assay: Positive allosteric modulation of human mGlu2 receptor expressed in CHO cells assessed as glutamate-induced [35S]GTPgammaS binding after 30 mins by liquid scintillation counting relative to glutamate; assay type: functional, cell-based
# Target sequence in this assay (Q14416 19-872 limits assumed): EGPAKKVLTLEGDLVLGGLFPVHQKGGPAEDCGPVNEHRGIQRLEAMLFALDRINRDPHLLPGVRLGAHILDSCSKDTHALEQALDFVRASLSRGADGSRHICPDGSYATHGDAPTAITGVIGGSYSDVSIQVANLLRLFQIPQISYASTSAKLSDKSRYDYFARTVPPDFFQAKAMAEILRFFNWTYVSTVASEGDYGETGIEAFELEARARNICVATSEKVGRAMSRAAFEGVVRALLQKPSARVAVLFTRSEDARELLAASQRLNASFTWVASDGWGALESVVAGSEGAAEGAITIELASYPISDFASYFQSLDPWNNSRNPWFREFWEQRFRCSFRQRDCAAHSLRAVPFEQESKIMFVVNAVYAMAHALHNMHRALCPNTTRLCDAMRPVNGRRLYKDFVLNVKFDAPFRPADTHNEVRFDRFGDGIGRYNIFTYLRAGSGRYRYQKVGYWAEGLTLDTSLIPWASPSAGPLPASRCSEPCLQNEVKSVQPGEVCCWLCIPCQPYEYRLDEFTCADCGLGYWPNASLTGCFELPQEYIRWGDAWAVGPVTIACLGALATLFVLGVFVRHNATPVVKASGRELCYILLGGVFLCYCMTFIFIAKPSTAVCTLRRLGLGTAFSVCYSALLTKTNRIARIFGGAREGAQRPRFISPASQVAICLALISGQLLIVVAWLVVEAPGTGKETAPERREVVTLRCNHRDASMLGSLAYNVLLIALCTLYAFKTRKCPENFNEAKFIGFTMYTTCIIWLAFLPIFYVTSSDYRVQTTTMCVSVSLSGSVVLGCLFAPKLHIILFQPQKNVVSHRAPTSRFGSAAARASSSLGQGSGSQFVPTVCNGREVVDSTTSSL
# [3] = Drug metabolism in human liver microsomes at 5 uM after 15 mins; assay type: ADME, Microsome; details: read-out: Drug metabolism
# [4] = Drug metabolism in rat liver microsomes at 5 uM after 15 mins; assay type: ADME, Microsome; details: read-out: Drug metabolism
# [5] = Aqueous solubility of the compound in 20% HP-beta-CD buffer at pH 4 to 7.4; assay type: physicochemical
# [6] = molecular target: T2, CYP3A4 (Homo sapiens, UniProt P08684); assay: Inhibition of CYP3A4 at 5 uM; assay type: ADME
# [7] = molecular target: hERG (Homo sapiens, UniProt Q12809); assay: Inhibition of human ERG expressed in HEK293 cells assessed as whole cell current at 3 uM after 5 mins by automated patch-clamp assay relative to control; assay type: cell-based; details: HEK293 cells expressing hERG
# [8] = Drug level in Swiss mouse brain at 10 mg/kg, sc after 0.5 hrs; assay type: ADME, organism-based; parameters: dose 10 mg/kg, route subcutaneous; details: read-out: Drug uptake
# [9] = Drug level in Swiss mouse brain at 10 mg/kg, sc after 1 hr; assay type: ADME, organism-based; parameters: dose 10 mg/kg, route subcutaneous; details: read-out: Drug uptake
# [10] = Drug level in Swiss mouse brain at 10 mg/kg, sc after 1.5 hrs; assay type: ADME, organism-based; parameters: dose 10 mg/kg, route subcutaneous; details: read-out: Drug uptake
# [11] = Ratio of drug level in brain to plasma in Swiss mouse at 10 mg/kg, sc after 1 hr; assay type: ADME, organism-based; parameters: dose 10 mg/kg, route subcutaneous; details: read-out: BPR
# [12] = tested on: Brain; assay: Ratio of drug level in Swiss mouse brain at 10 mg/kg, sc after 1.5 hrs to drug level in Swiss mouse brain at 10 mg/kg, sc after 1 hr; assay type: ADME, organism-based; details: in vivo
# [13] = Aqueous solubility of the compound in 20% HP-beta-CD buffer at pH 4; assay type: physicochemical
# [14] = molecular target: T2, CYP3A4; assay: Inhibition of CYP3A4 at 1 uM; assay type: ADME
# [15] = molecular target: T3, CYP2C9 (Homo sapiens, UniProt P11712); assay: Inhibition of CYP2C9 at 1 uM; assay type: ADME
# [16] = molecular target: T4, CYP2D6 (Homo sapiens, UniProt P10635); assay: Inhibition of CYP2D6 at 1 uM; assay type: ADME
# [17] = molecular target: T5, CYP1A2 (Homo sapiens, UniProt P05177); assay: Inhibition of CYP1A2 at 1 uM; assay type: ADME
# T5 sequence (P05177 whole entry): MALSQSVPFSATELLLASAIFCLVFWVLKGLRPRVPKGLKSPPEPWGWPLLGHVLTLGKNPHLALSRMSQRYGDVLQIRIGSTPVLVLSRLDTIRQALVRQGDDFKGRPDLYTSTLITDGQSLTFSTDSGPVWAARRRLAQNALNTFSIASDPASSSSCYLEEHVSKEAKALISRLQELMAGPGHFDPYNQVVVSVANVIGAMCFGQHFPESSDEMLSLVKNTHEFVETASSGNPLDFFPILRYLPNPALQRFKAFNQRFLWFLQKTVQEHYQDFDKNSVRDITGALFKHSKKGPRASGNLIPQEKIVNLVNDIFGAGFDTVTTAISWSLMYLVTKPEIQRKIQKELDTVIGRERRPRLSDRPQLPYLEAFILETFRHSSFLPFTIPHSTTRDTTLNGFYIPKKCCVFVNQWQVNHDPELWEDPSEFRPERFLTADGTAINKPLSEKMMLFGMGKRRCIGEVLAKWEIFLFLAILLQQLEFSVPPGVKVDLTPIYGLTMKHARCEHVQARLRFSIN
# [18] = molecular target: T6, CYP2C19 (Homo sapiens, UniProt P33261); assay: Inhibition of CYP2C19 at 1 uM; assay type: ADME
# [19] = molecular target: T3, CYP2C9; assay: Inhibition of CYP2C9 at 5 uM; assay type: ADME
# [20] = molecular target: T4, CYP2D6; assay: Inhibition of CYP2D6 at 5 uM; assay type: ADME
# [21] = molecular target: T5, CYP1A2; assay: Inhibition of CYP1A2 at 5 uM; assay type: ADME
# [22] = molecular target: T6, CYP2C19; assay: Inhibition of CYP2C19 at 5 uM; assay type: ADME
# T3 sequence (P11712 whole entry): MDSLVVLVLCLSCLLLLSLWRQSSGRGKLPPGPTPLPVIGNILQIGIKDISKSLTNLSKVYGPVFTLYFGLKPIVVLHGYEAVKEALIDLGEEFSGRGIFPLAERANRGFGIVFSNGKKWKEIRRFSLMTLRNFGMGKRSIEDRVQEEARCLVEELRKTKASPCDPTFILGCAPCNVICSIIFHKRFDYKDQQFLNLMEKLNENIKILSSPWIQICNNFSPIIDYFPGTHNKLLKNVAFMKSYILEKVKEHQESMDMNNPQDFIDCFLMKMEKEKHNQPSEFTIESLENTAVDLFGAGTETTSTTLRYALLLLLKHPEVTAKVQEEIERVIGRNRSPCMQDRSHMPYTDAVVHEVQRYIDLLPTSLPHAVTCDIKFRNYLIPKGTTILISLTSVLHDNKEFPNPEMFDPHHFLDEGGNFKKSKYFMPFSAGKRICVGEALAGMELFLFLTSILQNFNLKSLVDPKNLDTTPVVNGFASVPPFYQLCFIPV
# hERG, sequence (Q12809 whole entry): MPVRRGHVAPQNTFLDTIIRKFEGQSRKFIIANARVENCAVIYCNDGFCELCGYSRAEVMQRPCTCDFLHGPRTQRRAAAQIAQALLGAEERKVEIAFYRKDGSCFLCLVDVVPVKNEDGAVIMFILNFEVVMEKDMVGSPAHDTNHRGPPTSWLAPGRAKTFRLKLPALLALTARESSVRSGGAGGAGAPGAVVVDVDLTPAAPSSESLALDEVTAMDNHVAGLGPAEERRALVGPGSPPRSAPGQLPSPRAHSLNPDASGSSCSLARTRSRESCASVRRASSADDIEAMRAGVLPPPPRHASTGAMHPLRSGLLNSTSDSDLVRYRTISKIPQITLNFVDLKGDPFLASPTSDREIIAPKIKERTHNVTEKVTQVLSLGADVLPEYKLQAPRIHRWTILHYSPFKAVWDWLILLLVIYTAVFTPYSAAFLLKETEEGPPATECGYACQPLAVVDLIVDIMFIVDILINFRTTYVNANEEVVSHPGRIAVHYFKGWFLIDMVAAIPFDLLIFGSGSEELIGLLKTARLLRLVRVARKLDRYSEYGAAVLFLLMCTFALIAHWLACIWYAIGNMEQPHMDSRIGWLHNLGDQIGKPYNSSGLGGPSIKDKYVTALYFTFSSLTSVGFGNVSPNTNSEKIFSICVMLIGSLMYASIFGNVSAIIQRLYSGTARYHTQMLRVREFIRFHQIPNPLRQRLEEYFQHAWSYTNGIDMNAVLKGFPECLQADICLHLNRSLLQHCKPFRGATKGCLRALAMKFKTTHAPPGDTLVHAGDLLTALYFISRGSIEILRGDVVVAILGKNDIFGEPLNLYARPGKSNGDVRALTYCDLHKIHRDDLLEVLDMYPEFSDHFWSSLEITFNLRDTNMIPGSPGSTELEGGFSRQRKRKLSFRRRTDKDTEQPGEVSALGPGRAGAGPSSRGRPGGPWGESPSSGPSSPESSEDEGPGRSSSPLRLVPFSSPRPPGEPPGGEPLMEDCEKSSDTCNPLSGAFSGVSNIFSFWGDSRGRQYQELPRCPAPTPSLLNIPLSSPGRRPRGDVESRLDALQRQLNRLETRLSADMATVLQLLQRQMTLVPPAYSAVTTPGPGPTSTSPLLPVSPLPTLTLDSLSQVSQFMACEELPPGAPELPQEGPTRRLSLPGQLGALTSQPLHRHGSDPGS
# T2 sequence (P08684 whole entry): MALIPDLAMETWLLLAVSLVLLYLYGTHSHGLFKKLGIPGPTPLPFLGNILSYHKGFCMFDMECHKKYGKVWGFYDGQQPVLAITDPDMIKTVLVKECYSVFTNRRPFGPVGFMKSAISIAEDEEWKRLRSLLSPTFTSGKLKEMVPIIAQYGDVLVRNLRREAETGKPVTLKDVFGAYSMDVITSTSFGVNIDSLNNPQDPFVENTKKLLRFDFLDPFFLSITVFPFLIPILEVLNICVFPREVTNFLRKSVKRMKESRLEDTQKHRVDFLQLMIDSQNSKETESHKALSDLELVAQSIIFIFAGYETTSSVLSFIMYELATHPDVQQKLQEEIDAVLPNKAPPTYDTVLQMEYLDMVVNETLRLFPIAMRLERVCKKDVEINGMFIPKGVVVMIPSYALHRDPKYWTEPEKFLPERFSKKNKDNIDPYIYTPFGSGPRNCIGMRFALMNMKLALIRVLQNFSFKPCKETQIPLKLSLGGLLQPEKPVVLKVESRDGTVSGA
# T4 sequence (P10635 whole entry): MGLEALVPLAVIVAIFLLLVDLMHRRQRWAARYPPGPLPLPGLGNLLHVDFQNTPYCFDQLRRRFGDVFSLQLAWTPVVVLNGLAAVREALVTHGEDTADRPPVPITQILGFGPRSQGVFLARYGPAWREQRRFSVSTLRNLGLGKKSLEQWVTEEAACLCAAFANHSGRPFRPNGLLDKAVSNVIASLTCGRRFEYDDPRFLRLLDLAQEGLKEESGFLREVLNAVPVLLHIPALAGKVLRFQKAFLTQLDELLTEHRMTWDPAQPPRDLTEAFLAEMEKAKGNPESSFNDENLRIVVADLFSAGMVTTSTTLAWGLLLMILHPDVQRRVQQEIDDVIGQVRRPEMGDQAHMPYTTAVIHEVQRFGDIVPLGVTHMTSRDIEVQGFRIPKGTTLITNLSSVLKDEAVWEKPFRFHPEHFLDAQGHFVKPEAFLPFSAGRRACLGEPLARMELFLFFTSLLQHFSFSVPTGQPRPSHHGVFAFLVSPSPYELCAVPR
# T6 sequence (P33261 whole entry): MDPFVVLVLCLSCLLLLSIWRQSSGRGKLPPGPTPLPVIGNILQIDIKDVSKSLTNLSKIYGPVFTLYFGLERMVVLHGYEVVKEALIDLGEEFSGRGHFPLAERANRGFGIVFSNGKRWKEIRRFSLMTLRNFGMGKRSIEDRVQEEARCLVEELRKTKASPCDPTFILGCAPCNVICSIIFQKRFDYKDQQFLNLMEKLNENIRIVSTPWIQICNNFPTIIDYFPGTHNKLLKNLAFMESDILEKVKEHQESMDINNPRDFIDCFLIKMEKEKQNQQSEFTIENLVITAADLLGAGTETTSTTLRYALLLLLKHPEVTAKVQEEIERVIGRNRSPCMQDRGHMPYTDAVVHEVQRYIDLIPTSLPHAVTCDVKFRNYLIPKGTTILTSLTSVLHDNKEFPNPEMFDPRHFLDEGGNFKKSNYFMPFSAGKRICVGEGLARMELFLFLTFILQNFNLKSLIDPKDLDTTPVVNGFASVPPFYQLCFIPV
EC50 [1] [µM],Emax [2] [%],"metabolised at 0.25 h, 5 µM [3] [%]","metabolised at 0.25 h, 5 µM [4] [%]",Structure (SMILES),"inhibition at 5 min, 3 µM [7] [%]",other results
0.042,188,36,32,CC(C)CCn1ccc(-c2ccc(Oc3ccccc3)cc2)c(C#N)c1=O,,solubility [5]: > 1 µg/mL; inhibition at 5 µM [6]: < 50%
,243,31,44,CCCCn1ccc(-c2ccc(Oc3ccnc(C)c3)cc2)c(C#N)c1=O,53,concentration at 0.5 h [8]: 1160 ng/g; concentration at 1 h [9]: 994 ng/g; concentration at 1.5 h [10]: 592 ng/g; Kp at 1 h [11]: 0.5; Ratio [12]: 2
0.55,245,27,41,CC(C)CCn1ccc(-c2ccc(Oc3ccncc3)cc2)c(C#N)c1=O,52,solubility [13]: ≥ 4000 µg/mL; inhibition at 1 µM [14]: 70%; inhibition at 1 µM [15]: 82%; inhibition at 1 µM [16]: 84%; inhibition at 1 µM [17]: 80%; inhibition at 1 µM [18]: 97%
0.447,266,61,47,Cc1cc(Oc2ccc(-c3ccn(CCC(C)C)c(=O)c3C#N)cc2)ccn1,,inhibition at 5 µM [19]: < 50%; inhibition at 5 µM [20]: < 50%; inhibition at 5 µM [21]: < 50%; inhibition at 5 µM [22]: < 50%
